Test results from ChEMBL document CHEMBL1201861, “Genomics of Drug Sensitity in Cancer screening data, Wellcome Trust Sanger Institute”.

Assays:
Experiment in all cases: cells
KYSE-150 cell line = format: functional, cell-based, Homo sapiens; conditions: Homo sapiens, KYSE-150
Description: SANGER: Inhibition of human KYSE-150 cell growth in a cell viability assay.

A2780 = format: functional, cell-based, Homo sapiens; conditions: Homo sapiens, A2780
Description: SANGER: Inhibition of human A2780 cell growth in a cell viability assay.

BXPC-3 = format: functional, cell-based, Homo sapiens; conditions: Homo sapiens, BXPC-3
Description: SANGER: Inhibition of human BxPC-3 cell growth in a cell viability assay.

HEC-1 = format: functional, cell-based, Homo sapiens; conditions: Homo sapiens, HEC-1
Description: SANGER: Inhibition of human HEC-1 cell growth in a cell viability assay.

HCC1419 = format: functional, cell-based, Homo sapiens; conditions: Homo sapiens, HCC1419
Description: SANGER: Inhibition of human HCC1419 cell growth in a cell viability assay.

SF-268 = format: functional, cell-based, Homo sapiens; conditions: Homo sapiens, SF-268
Description: SANGER: Inhibition of human SF268 cell growth in a cell viability assay.

MDA-MB-231 = format: functional, cell-based, Homo sapiens; conditions: Homo sapiens, MDA-MB-231
Description: SANGER: Inhibition of human MDA-MB-231 cell growth in a cell viability assay.

KYSE-140 = format: functional, cell-based, Homo sapiens; conditions: Homo sapiens, KYSE-140
Description: SANGER: Inhibition of human KYSE-140 cell growth in a cell viability assay.

ES4 = format: functional, cell-based, Homo sapiens; conditions: Homo sapiens, ES4
Description: SANGER: Inhibition of human ES4 cell growth in a cell viability assay.

CAL-72 = format: functional, cell-based, Homo sapiens; conditions: Homo sapiens, CAL-72
Description: SANGER: Inhibition of human CAL-72 cell growth in a cell viability assay.

CTB-1 = format: functional, cell-based; conditions: Homo sapiens
Description: SANGER: Inhibition of human CTB-1 cell growth in a cell viability assay.

MFH-ino = format: functional, cell-based; conditions: Homo sapiens
Description: SANGER: Inhibition of human MFH-ino cell growth in a cell viability assay.

SKG-IIIa = format: functional, cell-based, Homo sapiens; conditions: Homo sapiens, SKG-IIIa
Description: SANGER: Inhibition of human SKG-IIIa cell growth in a cell viability assay.

NOMO-1 = format: functional, cell-based; conditions: Homo sapiens
Description: SANGER: Inhibition of human NOMO-1 cell growth in a cell viability assay.

NCI-H2228 = format: functional, cell-based, Homo sapiens; conditions: Homo sapiens, NCI-H2228
Description: SANGER: Inhibition of human NCI-H2228 cell growth in a cell viability assay.

AM-38 = format: functional, cell-based, Homo sapiens; conditions: Homo sapiens, AM-38
Description: SANGER: Inhibition of human AM-38 cell growth in a cell viability assay.

NOS-1 = format: functional, cell-based, Homo sapiens; conditions: Homo sapiens, NOS-1
Description: SANGER: Inhibition of human NOS-1 cell growth in a cell viability assay.

PANC-08-13 = format: functional, cell-based, Homo sapiens; conditions: Homo sapiens, PANC-08-13
Description: SANGER: Inhibition of human PANC-08-13 cell growth in a cell viability assay.

NCI-H1793 = format: functional, cell-based, Homo sapiens; conditions: Homo sapiens, NCI-H1793
Description: SANGER: Inhibition of human NCI-H1793 cell growth in a cell viability assay.

MSTO-211H = format: functional, cell-based, Homo sapiens; conditions: Homo sapiens, MSTO-211H
Description: SANGER: Inhibition of human MSTO-211H cell growth in a cell viability assay.

Hs-578T = format: functional, cell-based, Homo sapiens; conditions: Homo sapiens, Hs-578T
Description: SANGER: Inhibition of human Hs-578-T cell growth in a cell viability assay.

DMS-114 = format: functional, cell-based, Homo sapiens; conditions: Homo sapiens, DMS-114
BFTC-905 = format: functional, cell-based, Homo sapiens; conditions: Homo sapiens, BFTC-905
Description: SANGER: Inhibition of human BFTC-905 cell growth in a cell viability assay.

RT-112 = format: functional, cell-based, Homo sapiens; conditions: Homo sapiens, RT-112
Description: SANGER: Inhibition of human RT-112 cell growth in a cell viability assay.

KM-H2 = format: functional, cell-based; conditions: Homo sapiens
Description: SANGER: Inhibition of human KM-H2 cell growth in a cell viability assay.

HuO-3N1 = format: functional, cell-based, Homo sapiens; conditions: Homo sapiens, HuO-3N1
Description: SANGER: Inhibition of human HuO-3N1 cell growth in a cell viability assay.

HOP-62 = format: functional, cell-based, Homo sapiens; conditions: Homo sapiens, HOP-62
Description: SANGER: Inhibition of human HOP-62 cell growth in a cell viability assay.

RCC10RGB = format: functional, cell-based, Homo sapiens; conditions: Homo sapiens, RCC10RGB
Description: SANGER: Inhibition of human RCC10RGB cell growth in a cell viability assay.

ES3 = format: functional, cell-based, Homo sapiens; conditions: Homo sapiens, ES3
Description: SANGER: Inhibition of human ES3 cell growth in a cell viability assay.

HT1197 = format: functional, cell-based, Homo sapiens, HT-1197; conditions: Homo sapiens, HT1197
Description: SANGER: Inhibition of human HT-1197 cell growth in a cell viability assay.

OVCAR-8 = format: functional, cell-based, Homo sapiens; conditions: Homo sapiens, OVCAR-8
Description: SANGER: Inhibition of human OVCAR-8 cell growth in a cell viability assay.

CAPAN-1 = format: functional, cell-based, Homo sapiens; conditions: Homo sapiens, CAPAN-1
Description: SANGER: Inhibition of human CAPAN-1 cell growth in a cell viability assay.

DOK = format: functional, cell-based, Homo sapiens; conditions: Homo sapiens, DOK
Description: SANGER: Inhibition of human DOK cell growth in a cell viability assay.

JAR = format: functional, cell-based, Homo sapiens; conditions: Homo sapiens, JAR
Description: SANGER: Inhibition of human JAR cell growth in a cell viability assay.

DSH1 = format: functional, cell-based, Homo sapiens; conditions: Homo sapiens, DSH1
Description: SANGER: Inhibition of human DSH1 cell growth in a cell viability assay.

OVCAR-4 = format: functional, cell-based, Homo sapiens; conditions: Homo sapiens, OVCAR-4
Description: SANGER: Inhibition of human OVCAR-4 cell growth in a cell viability assay.

AU565 = format: functional, cell-based, Homo sapiens; conditions: Homo sapiens, AU565
Description: SANGER: Inhibition of human AU565 cell growth in a cell viability assay.

LS-123 = format: functional, cell-based, Homo sapiens; conditions: Homo sapiens, LS-123
Description: SANGER: Inhibition of human LS-123 cell growth in a cell viability assay.

SK-MEL-2 = format: functional, cell-based, Homo sapiens; conditions: Homo sapiens, SK-MEL-2
Description: SANGER: Inhibition of human SK-MEL-2 cell growth in a cell viability assay.

COLO-680N = format: functional, cell-based, Homo sapiens; conditions: Homo sapiens, COLO-680N
Description: SANGER: Inhibition of human COLO-680N cell growth in a cell viability assay.

NCI-H2170 = format: functional, cell-based, Homo sapiens; conditions: Homo sapiens, NCI-H2170
Description: SANGER: Inhibition of human NCI-H2170 cell growth in a cell viability assay.

H4 = format: functional, cell-based; conditions: Homo sapiens
Description: SANGER: Inhibition of human H4 cell growth in a cell viability assay.

NCI-H2030 = format: functional, cell-based, Homo sapiens; conditions: Homo sapiens, NCI-H2030
Description: SANGER: Inhibition of human NCI-H2030 cell growth in a cell viability assay.

Panc1005 = format: functional, cell-based, Homo sapiens; conditions: Homo sapiens, Panc1005
Description: SANGER: Inhibition of human PANC-10-05 cell growth in a cell viability assay.

LCLC-103H cell line = format: functional, cell-based, Homo sapiens; conditions: Homo sapiens, LCLC-103H
Description: SANGER: Inhibition of human LCLC-103H cell growth in a cell viability assay.

KYSE-450 = format: functional, cell-based; conditions: Homo sapiens
Description: SANGER: Inhibition of human KYSE-450 cell growth in a cell viability assay.

SW48 = format: functional, cell-based, Homo sapiens; conditions: Homo sapiens, SW48
Description: SANGER: Inhibition of human SW48 cell growth in a cell viability assay.

SK-MEL-28 = format: functional, cell-based; conditions: Homo sapiens
Description: SANGER: Inhibition of human SK-MEL-28 cell growth in a cell viability assay.

COLO-792 = format: functional, cell-based, Homo sapiens; conditions: Homo sapiens, COLO-792
Description: SANGER: Inhibition of human COLO-792 cell growth in a cell viability assay.

## Nc1ccn([C@@H]2O[C@H](CO)[C@@H](O)[C@@H]2O)c(=O)n1 [CYTARABINE]
KYSE-150 cell line
  IC50: > 2 µM
A2780
  IC50: 0.162 µM
BXPC-3
  IC50: > 2 µM
HEC-1
  IC50: 1.79 µM
HCC1419
  IC50: > 2 µM
SF-268
  IC50: 1.36 µM
MDA-MB-231
  IC50: > 2 µM
KYSE-140
  IC50: > 2 µM
ES4
  IC50: 0.214 µM
CAL-72
  IC50: > 2 µM
CTB-1
  IC50: 0.0344 µM
MFH-ino
  IC50: > 2 µM
SKG-IIIa
  IC50: 0.915 µM
NOMO-1
  IC50: > 2 µM
NCI-H2228
  IC50: 0.597 µM
AM-38
  IC50: 1.47 µM
NOS-1
  IC50: 1.91 µM
PANC-08-13
  IC50: > 2 µM
NCI-H1793
  IC50: > 2 µM
MSTO-211H
  IC50: 0.324 µM
Hs-578T
  IC50: 0.839 µM
DMS-114
  IC50: 1.68 µM
BFTC-905
  IC50: 0.108 µM
RT-112
  IC50: 0.502 µM
KM-H2
  IC50: > 2 µM
HuO-3N1
  IC50: 1.33 µM
HOP-62
  IC50: > 2 µM
RCC10RGB
  IC50: > 2 µM
ES3
  IC50: 0.199 µM
HT1197
  IC50: > 2 µM
OVCAR-8
  IC50: 0.211 µM
CAPAN-1
  IC50: > 2 µM
DOK
  IC50: 0.904 µM
JAR
  IC50: 0.338 µM
DSH1
  IC50: > 2 µM
OVCAR-4
  IC50: > 2 µM
AU565
  IC50: > 2 µM
LS-123
  IC50: > 2 µM
SK-MEL-2
  IC50: > 2 µM
COLO-680N
  IC50: > 2 µM
NCI-H2170
  IC50: > 2 µM
H4
  IC50: 0.274 µM
NCI-H2030
  IC50: 1.05 µM
Panc1005
  IC50: 0.802 µM
LCLC-103H cell line
  IC50: > 2 µM
KYSE-450
  IC50: 1.09 µM
SW48
  IC50: 0.366 µM
SK-MEL-28
  IC50: 0.799 µM
COLO-792
  IC50: 1.05 µM
